Assays:
Drosophila melanogaster [1] = assay: Residual exposure knockdown bioassay on female fruit flies; assay type: in vivo; conditions: for speed of action (lethality) of enantiomers and racemate, in words: fruit flies, different dosages (FIG. 9, FIG. 10)
Drosophila melanogaster [2] = assay: as above; assay type: in vivo; conditions: for Drosophila knockdown times, comparison in words: Example 5, FIG. 5; for KT50 against female Drosophila, comparison in words: dosage 1.06*10^−1 g/m^2, FIG. 8; for observed symptoms of exposed flies: fruit flies; for KT50 (median knockdown time): female Drosophila melanogaster, 2.0±0.1 mg, logistic regression of knockdown-time curves
Source text: Each symbol of FIGS. 2A-C corresponds to one female. Dashed lines indicate logistic regression of knockdown-time curves. The median knockdown time for each curve is denoted by its intersection with the horizontal KT50 marker. FIG. 2D illustrates comparison of the knockdown speeds (1/KT50) relative to DDT I. Error bars represent 95% confidence intervals (CI). Values with the same letter have overlapping 95% Cls and differences are considered insignificant. Inset: Photo of a typical female fly.
Female Drosophila melanogaster were exposed to 2.0±0.1 mg of DFDT, MFDT and DDT separately, in their crystalline and amorphous forms. The insects were monitored with a video camera until the entire population ceased to move. The videos then were analyzed to determine the knockdown times—a proxy for lethality—for each individual insect (Videos S1-S5). […] KT50 values, the times required for death of 50% of the insects, are the standard for assessing insecticide lethality (the lifetimes of individual insects differ because of the random nature of their contact with insecticide surfaces and varied susceptibility of a population). Here, the KT50 values were calculated by logistic regression of knockdown-time curves. […] Knockdown speeds, reciprocals of KT50 values, decreased in inverse order (FIG. 2d). The amorphous forms are always faster than their respective crystalline counterparts, with a-DFDT the fastest. […] Overall, the lethalities of the different solid forms of a given compound, as deduced from their knockdown speeds, were inversely correlated with their thermodynamic stability.
The relationships between functional groups that are directly attached to the central carbon atom and Drosophila knockdown times are shown in FIG. 6. […] Physical state of the compound at room temperature, and the median knockdown time (KT50) against female Drosophila are denoted below each compound. The dosage for the residual bioassay was 1.06*10^−1 g/m^2.
Residual action, which refers to the length of time a compound or composition may exist in a particular environment and remain effective, is a good proxy for the insecticidal activity of a compound. Each crystalline form was ground to a particle size similar to that of the liquid particles prepared by fine mist spraying. Lethality measurements were performed in duplicate for each solid-state form, each accompanied by two controls (no insecticide). Each microcrystalline form was added to a 10.0 cm diameter polystyrene petri dish (2.0 mg per dish), which was subsequently shaken to disperse the microcrystals throughout the petri dish. Amorphous forms were prepared by fine mist spraying a stock solution containing 70.0 mg of the respective insecticide in 10.0 mL hexane onto the top and bottom of 10.0 cm diameter polystyrene petri dishes (two sprays=0.280 mL) and allowing the hexane to evaporate at room temperature, resulting in 2.0 mg of liquid insecticide in each petri dish. 25 female adults Drosophila were sedated with carbon dioxide and flies were transferred to each petri dish. The top of the dish was then placed over the bottom and the motion of the mosquitos or fruit flies was recorded with a video camera (Sony HDR-CX455). The knockdown time was measured for each individual, with knockdown associated with an insect laying on the bottom surface of the petri dish in a supine position without moving from its original position after 10 seconds.

[3] = Stability of amorphous forms at room temperature; assay type: physicochemical
Source text: DFDT and MFDT were synthesized from trichloroacetate and para-fluorobenzaldehyde to give 1-(4-fluorophenyl)-2,2,2-trichloroethanol. Subsequent reaction with fluorobenzene or chlorobenzene afforded DFDT and MFDT, respectively. Two polymorphic crystalline forms of DFDT (DFDT-I, -II) and three polymorphic forms of racemic MFDT ((RS)-MFDT-I, -II, -III) were discovered. DFDT-I single crystals could be obtained from a variety of solvents and DFDT-II single crystals from diethyl ether. (RS)-MFDT-I could be crystallized from a variety of solvents. The (R)- and (S)-MFDT enantiomers were resolved by chromatography on a chiral stationary phase, and single crystals were grown from a variety of solvents. Curiously, single crystals of (RS)-MFDT-II and -III were obtained by crystallization from the melt at >30° C. and 25° C., respectively, using seed crystals of either the R or S isomers. These crystalline forms, six total, were characterized by single crystal X-ray diffraction (FIG. 1). […] The Tm of the enantiomorphs was 47° C. Amorphous DFDT (a-DFDT), prepared by supercooling melts or fine mist spraying of solutions, afforded broad X-ray scattering halos (FIG. 1H) and was stable for 25 days at room temperature. Amorphous resolved and racemic MFDT (a-(R)- and a-(S)-MFDT, and a-(RS)-MFDT, respectively; FIG. 1H) were stable for 10 days at room temperature. These observations contrast with a-DDT, which transformed to crystalline DDT Form I within 5 hours at room temperature.

[4] = test system: Anopheles quadrimaculatus; assay: Knockdown bioassay on female Anopheles mosquitoes in coated petri dishes; assay type: in vivo; conditions: for KT50: female Anopheles, 1.0±0.1 mg amorphous form in petri dish; for knockdown speed, times faster than a-DDT: Anopheles and Aedes mosquitoes (FIG. 3F)
Source text: (§1) Each symbol corresponds to one female. Dashed lines indicate logistic regression of knockdown-time curves. The median knockdown time for each curve is denoted by its intersection with the horizontal KT50 marker. FIG. 3F illustrates the relative knockdown speeds of amorphs. Error bars represent 95% confidence intervals (CI). Values with the same letter have overlapping 95% Cls and differences are considered insignificant. Insets: Photos of typical Anopheles and Aedes mosquito females.
(§2) Female Anopheles and Aedes mosquitoes exposed to 1.0±0.1 mg of various crystalline forms followed the same knockdown trend as Drosophila, see Example 2, with KT50 values decreasing in the order DDT-I>(RS)-MFDT-I>DFDT-I>DFDT-II (FIGS. 3A and 3B). […] Female mosquitoes were introduced into petri dishes coated with 1.0±0.1 mg of the amorphous forms, and their motions recorded (Videos S8-S10). KT50 values for a-DFDT and a-(RS)-MFDT against Anopheles were 29 and 39 minutes, and against Aedes were 30 and 40 minutes, respectively (FIGS. 3C and 3D). Corresponding KT50 values for a-DDT were much larger (120 and 112 minutes). Accordingly, the knockdown speeds for a-DFDT and a-(RS)-MFDT are 4 and 3 times faster than a-DDT, respectively (FIG. 3F).

Aedes aegypti = assay: Knockdown bioassay on female Aedes mosquitoes in coated petri dishes; assay type: in vivo; conditions: 1.0±0.1 mg amorphous form in petri dish
Source text: as §1, §2

rats = assay: Acute oral toxicity, Fixed Dose Procedure (OECD Guideline 420); assay type: in vivo; conditions: for clinical symptoms: 5 animals; for clinical outcome of the animal in the pilot experiment: single animal
Protocol: (§3) Fixed Dose Procedure (OECD Guideline 420):
(§4) (RS)-MFTE and (RS)-PFTE were test under OECD, Test No. 420: Acute Oral Toxicity—Fixed Dose Procedure, OECD Guidelines for the Testing of Chemicals, Section 4, OECD Publishing, Paris (2002), which is hereby incorporated by reference in its entirety.
(§5) Groups of five young adult animals (rats) of one sex in a stepwise procedure using the fixed doses of 5, 50, 300 and 2000 mg/kg in the main study as shown in FIG. 12B. Most tests are likely to be completed with either one or two sighting study steps and one main study step, thus using between 5 and 7 animals. Up to 5 animals are used in a limit test.

[5] = as above; assay type: in vivo, rats; conditions: in vivo; rat, acute oral
Protocol: as §3, §4, §5

O[C@H](c1ccc(F)cc1)C(Cl)(Cl)Cl [(R)-MFTE, (R)-1-(4-fluorophenyl)-2,2,2-trichloro-ethanol]
speed of action against deltamethrin Form I, in words (Drosophila melanogaster [1]; dosage above 5.30*10^−3/m^2): even faster in action than deltamethrin Form I
speed of action (lethality) of enantiomers and racemate, in words (Drosophila melanogaster [1]): always faster in action than (S)-MFTE

OC(c1ccc(C(F)(F)F)cc1)C(Cl)(Cl)Cl (stereo not drawn) [TFMTE, 1-(4-(trifluoromethyl)phenyl)-2,2,2-trichloro-ethanol]
Drosophila knockdown times, comparison in words (Drosophila melanogaster [2]): faster than DDT Form I, but not as fast as PFTE

CC(O)(c1c(F)c(F)c(F)c(F)c1F)C(Cl)(Cl)Cl (stereo not drawn) [PFTP, 2-(perfluorophenyl)-1,1,1-trichloro-propan-2-ol]
KT50 against female Drosophila, comparison in words (Drosophila melanogaster [2]): comparable to that of crystalline deltamethrin Form I

Clc1ccc(C(c2ccc(Cl)cc2)C(Cl)(Cl)Cl)cc1 [a-DDT, 1,1,1-trichloro-2,2-bis(4-chlorophenyl)ethane]
time to transformation to crystalline DDT Form I ([3]; room temperature): ≤ 5 h
KT50 [4]: 120 min
KT50 (Aedes aegypti): 112 min

Fc1ccc(C(c2ccc(F)cc2)C(Cl)(Cl)Cl)cc1 [DFDT, reference compound]
KT50 against female Drosophila, comparison in words (Drosophila melanogaster [2]): much larger
observed symptoms of exposed flies (Drosophila melanogaster [2]): induced hyperactivity followed by paralysis, and then death

Fc1ccc(C(c2ccc(Cl)cc2)C(Cl)(Cl)Cl)cc1 [a-(R)-MFDT, 1,1,1-trichloro-2,2-(4-chlorophenyl)-(4-fluorophenyl)-ethane]
time the amorphous form was stable ([3]; room temperature): 10 days

O[C@H](c1c(F)c(F)c(F)c(F)c1F)C(Cl)(Cl)Cl [(R)-PFTE, (R)-1-perfluorophenyl-2,2,2-trichloro-ethanol]
speed of action against (RS)-PFTE, in words (Drosophila melanogaster [1]; dosage below 1.06*10^−1/m^2): faster in action than (RS)-PFTE
speed of action (lethality) of enantiomers and racemate, in words (Drosophila melanogaster [1]): always faster in action than (S)-PFTE
speed of action against deltamethrin Form I, in words (Drosophila melanogaster [1]; high dosage 1.06*10^−1/m^2 and above): slower in action than deltamethrin Form I
speed of action against deltamethrin, in words (Drosophila melanogaster [1]; low dosage 5.30*10^−3/m^2): faster in action than deltamethrin

OC(c1c(F)c(F)c(F)c(F)c1F)C(Cl)(Cl)Cl (racemic) [(RS)-PFTE, 1-perfluorophenyl-2,2,2-trichloro-ethanol]
necropsy findings (rats; 300 mg/kg b.w.): no abnormal findings during necropsy
clinical symptoms (rats; 300 mg/kg b.w.): no clinical symptoms except for soft feces
necropsy findings (rats; 2000 mg/kg b.w.): changes were seen mainly in the gastrointestinal tract
clinical outcome of the animal in the pilot experiment (rats; 2000 mg/kg b.w.): had to be euthanized on day 1 approx. 3 h after application
LD50 [5]: 300 to 2000 mg/kg
Drosophila knockdown times, comparison in words (Drosophila melanogaster [2]): smaller than amorphous DFDT
KT50 against female Drosophila, comparison in words (Drosophila melanogaster [2]): comparable to that of crystalline deltamethrin Form I

Clc1ccc(C(c2ccc(Cl)cc2)C(Cl)(Cl)Cl)cc1 [DDT, 1,1,1-trichloro-2,2-bis(4-chlorophenyl)ethane, reference compound]
KT50 against female Drosophila, comparison in words (Drosophila melanogaster [2]): much larger
observed symptoms of exposed flies (Drosophila melanogaster [2]): induced hyperactivity followed by paralysis, and then death

Fc1ccc(C(c2ccc(Cl)cc2)C(Cl)(Cl)Cl)cc1 (racemic) [a-(RS)-MFDT, 1,1,1-trichloro-2,2-(4-chlorophenyl)-(4-fluorophenyl)-ethane]
time the amorphous form was stable ([3]; room temperature): 10 days
knockdown speed, times faster than a-DDT [4]: 3 times
KT50 [4]: 39 min
KT50 (Aedes aegypti): 40 min

Clc1ccc(C(c2ccc(Cl)cc2)C(Cl)(Cl)Cl)cc1 [DDT-I, 1,1,1-trichloro-2,2-bis(4-chlorophenyl)ethane, reference compound]
KT50 (median knockdown time) (Drosophila melanogaster [2]): 261 min

Fc1ccc(C(c2ccc(Cl)cc2)C(Cl)(Cl)Cl)cc1 (stereo not drawn) [MFDT, 1,1,1-trichloro-2,2-(4-chlorophenyl)-(4-fluorophenyl)-ethane]
observed symptoms of exposed flies (Drosophila melanogaster [2]): induced hyperactivity followed by paralysis, and then death

OC(c1ccc(F)cc1)C(Cl)(Cl)Cl (racemic) [(RS)-MFTE, 1-(4-fluorophenyl)-2,2,2-trichloro-ethanol]
necropsy findings (rats; 300 mg/kg b.w.): no relevant changes were noted except for the spleen
clinical symptoms (rats; 300 mg/kg b.w.): only mild symptoms (underactivity)
necropsy findings (rats; 2000 mg/kg b.w.): changes were seen mainly in the gastrointestinal tract
clinical outcome of the animal in the pilot experiment (rats; 2000 mg/kg b.w.): had to be euthanized 1 day after application
LD50 [5]: 300 to 2000 mg/kg
KT50 against female Drosophila, comparison in words (Drosophila melanogaster [2]): comparable to that of crystalline deltamethrin Form I
speed of action (lethality) of enantiomers and racemate, in words (Drosophila melanogaster [1]): lies in between of (R) and (S)-MFTE

Fc1ccc(C(c2ccc(F)cc2)C(Cl)(Cl)Cl)cc1 [a-DFDT]
KT50 (median knockdown time) (Drosophila melanogaster [2]): 54 min
time the amorphous form is stable ([3]; addition of 10 wt % PEG 100 emulsifier): at least 120 days
time the amorphous form was stable ([3]; room temperature): 25 days
knockdown speed, times faster than a-DDT [4]: 4 times
KT50 [4]: 29 min
KT50 (Aedes aegypti): 30 min

Reference: US11570987B2, “Pesticidal compounds and methods of use” (New York University, priority 2019, dated 2023)
